Measurements: BigSolDB 2.1

## CC(=O)Nc1ccc(O)cc1
In ethanol, 293.15 K
  solubility (mole fraction): 0.0505
In ethanol, 298.15 K
  solubility (mole fraction): 0.0546
In ethanol, 303.15 K
  solubility (mole fraction): 0.062
In ethanol, 308.15 K
  solubility (mole fraction): 0.067
In ethanol, 313.15 K
  solubility (mole fraction): 0.0705
In propylene glycol, 293.15 K
  solubility (mole fraction): 0.0483
In propylene glycol, 298.15 K
  solubility (mole fraction): 0.0516
In propylene glycol, 303.15 K
  solubility (mole fraction): 0.0603
In propylene glycol, 308.15 K
  solubility (mole fraction): 0.0664
In propylene glycol, 313.15 K
  solubility (mole fraction): 0.0752
